Key:
HFD-NASH mice [1] = experiment: Therapeutic effects of Beinaglutide on HFD induced NASH model in ob/ob mice (Example 2, 11 weeks); format: in vivo; details: for percentage of body weight changes from baselines: Day 78 (11 weeks); for plasma ALT level: FIG. 16B
Description: Animal grouping and experiment process: A total of 70 male ob/ob mice (6 weeks old) were fed with a chow diet after transferred to SPF animal room and acclimatized for 1 week. The feed was then switched to HFD diet (D09100310, fat (40 Kcal %), fructose (20 Kcal %) and cholesterol (2%), also named GAN (Gubra Amylin NASH) diet, Research Diets, Inc., USA) and maintained for 6 weeks. Inversed artificial circadian rhythms lighting were adopted during this period and subsequent drug administration period.
Plasma samples were collected for the measurement of ALT and mouse body weight data were measured at week 6. Animals were then randomly allocated into 4 groups (12 animals/group) based on body weight (the first weight index) and plasma ALT level (the second weight index). Drug and vehicle administration were started from week 7 since modeling start and mice were maintained on HFD diet with inversed artificial circadian rhythms lighting.
Data recording: Appearance and behavior of each mouse were observed after administration. All abnormal appearance, status and behaviors were recorded. In the period of HFD model development, body weight was measured once weekly from week 1 to week 6. Then body weight and food consumption were measured twice weekly since compound dosing start (week 7). The food consumption was calculated by the diet consumption of each cage of mice within 8 hours per day, the average food consumption per group was calculated. […]
Blood and tissue sampling: At the end of the in vivo study, all mice were euthanized via carbon dioxide (CO2) asphyxia after 11.5 hours fasting. Blood samples were collected via cardiac puncturing, one aliquot of each blood sample was collected into a tube without anti-coagulant for serum preparation. Serum was obtained by centrifugation at 3000 rpm for 10 minutes at 4° C. and then stored in a −80° C. refrigerator before being used for the measurement of ALT, AST, total bilirubin (TBIL), TC, TG and LDL-c. The other aliquot of each blood sample was collected into a tube with EDTA-K anti-coagulant for plasma preparation. Plasma samples were obtained by centrifugation at 4000×g for 10 minutes at 4° C. and then stored in a −80° C. refrigerator.
After the animal was sacrificed, the body weight and liver weight were measured, and four lobes of each liver were collected. The right middle lobe of each liver was collected, cut into two sections, put into two SNAP frozen tubes and kept at −80° C. before testing. One section of the liver tissue was used for mRNA expression analysis of Tgfb1, Col1a1 and Acta2; and the other section of the liver tissue was used for the measurement of TC and TG contents. The left middle lobe of each liver was collected, store at −80° C. for future use. The left lateral lobe of each liver was collected, cut into two sections and put into two tubes. One section was used for optimal cutting temperature (OCT) embedding, frozen sectioning and oil red staining for steatosis examination, and for calculation of percentage of fat deposition area. The other section was fixed with 10% neutral formalin solution and processed into formalin fixed paraffin-embedded (FFPE) block for H&E, Sirius red or α-SMA IHC staining respectively. The right lateral lobe of each liver was collected and fixed in 10% neutral formalin for future use.
Serum biochemistry analysis: The serum samples were taken out from −80° C. refrigerator and restored to room temperature. 150 μl of each serum sample was pipetted out for the analysis of ALT, AST, TBIL, TC, TG and LDL-c with automatic biochemical analyzer (HITACHI 7180).
qPCR analysis: The right middle lobe of each liver tissue was cut into small pieces, and 30-50 mg of liver tissue was weighed and transferred into a Lysing Matrix D tube, then 1 ml of TRIzol Reagent was added into Lysing Matrix D containing tissue immediately. […]

HFD-NASH mice [2] = experiment: Pharmacodynamics study of Beinaglutide in HFD-NASH mice (Example 1, 4 weeks); format: in vivo
Description: HFD-NASH model development Animals were group-housed in standard cages at 22° C. in a 12:12-h light-dark cycle. Ob/ob mice were allowed ad libitum access to a diet enriched in fat (40% kcal), fructose (20% by weight), and cholesterol (2% by weight) (Research Diets, Inc., #D09100310). Over 9 weeks feeding, the mice (HFD-NASH) were developed with nonalcoholic fatty liver disease (steatosis, steatohepatitis with fibrosis), as assessed by biochemical methods (e.g., ALT levels).^1 ^1Santhekadur P K, Kumar D P, Sanyal AszJ. Preclinical models of non-alcoholic fatty liver disease. J Hepatol. 2018 February; 68(2):230-237; 2) Clapper J R. Hendricks M D, Gu G. at al. Diet-Induced mouse model of fatty liver disease and nonalcoholic steatohepatitis reflecting clinical disease progression and methods of assessment. Am J Physiol Gastrointest Liver Physiol 305: G483-G495. 2013.
After 9 weeks diet-induction, HFD-NASH mice were randomized into different groups by body weight. Body weight and diet were measured every day. At termination, blood was collected by cardiac puncture after animal's euthanasia by CO2. Liver were harvested and weighted. Right medial and/or left lateral lobes of the liver were excised. One part of liver was frozen for liver triglyceride measurement. One part was frozen for protein, RNA level qualification, like collagen 1 alpha 1 (Col1a1). One part was paraffin embedded. Hematoxylin and eosin (H&E) were used for morphological analysis. Picrosirius red stains was used for assessment of hepatic fibrosis. Histopathological analysis was performed by a pathologist blinded to the study. The remaining liver tissue was kept at −80° C. till analysis. Plasma levels of ALT, AST, TG, and total cholesterol (TC) were measured by bioanalyzer or kits.
Oral glucose tolerance test (OGTT) was performed at day 30 and was a test to diagnose type 2 diabetes (FIG. 4B).
Homeostatic Model Assessment of Insulin Resistance (HOMA-IR) is a calculation marker for insulin resistance which was calculated by formula: Glucose (mM)×Insulin […]/22.5 (FIG. 4C). *P<0.05, […] vs vehicle group by student t test.

[3] = mouse, in vivo, sc
Description: Mice (n=4 per time point) were randomized into different groups by body weight on the day before the study. Mice were fasted overnight before dosing. […] Samples were collected at the time intervals shown in Table 1, where about 60 μL blood was taken into EDTA-coated tubes (pre-added 2.5 μL DPP-4 inhibitor, and 2.5 μL protease inhibitor). The plasma was separated on a pre-cooled centrifuge and then immediately frozen in dry ice. The samples were stored at −80° C. till assay.

[4] = all 3 doses (0.6, 1.2, 2.4 mg/kg), about 11 weeks

With `CC[C@H](C)[C@H](NC(=O)[C@H](Cc1ccccc1)NC(=O)[C@H](CCC(=O)O)NC(=O)[C@H](CCCCN)NC(=O)[C@H](C)NC(=O)[C@H](C)NC(=O)[C@H](CCC(N)=O)NC(=O)CNC(=O)[C@H](CCC(=O)O)NC(=O)[C@H](CC(C)C)NC(=O)[C@H](Cc1ccc(O)cc1)NC(=O)[C@H](CO)NC(=O)[C@H](CO)NC(=O)[C@@H](NC(=O)[C@H](CC(=O)O)NC(=O)[C@H](CO)NC(=O)[C@@H](NC(=O)[C@H](Cc1ccccc1)NC(=O)[C@@H](NC(=O)CNC(=O)[C@H](CCC(=O)O)NC(=O)[C@H](C)NC(=O)[C@@H](N)Cc1cnc[nH]1)[C@@H](C)O)[C@@H](C)O)C(C)C)C(=O)N[C@@H](C)C(=O)N[C@@H](Cc1c[nH]c2ccccc12)C(=O)N[C@@H](CC(C)C)C(=O)N[C@H](C(=O)N[C@@H](CCCCN)C(=O)NCC(=O)N[C@@H](CCCNC(=N)N)C(=O)O)C(C)C` [Beinaglutide] the “liver fibrosis scores (H&E staining)” value (HFD-NASH mice [1]; 0.6 mg/kg and 2.4 mg/kg, 11 weeks, vs control group, FIGS. 20A-20C) was “significantly (P<0.05) decreased”, the “animal counts with severe pathological changes (steatosis, steatosis location, interlobular inflammation, liver fibrosis scores, liver fibrosis pattern)” value (HFD-NASH mice [1]; 0.6 mg/kg or 2.4 mg/kg, about 11 weeks) was “decreased” and the “percentage of body weight changes from baselines” value (“percentage of body weight changes” for short) (HFD-NASH mice [1]; 0.6 mg/kg t.i.d. s.c., first of three values given 'respectively') was −10.32%. The “liver TG contents” value (HFD-NASH mice [1]; 1.2 mg/kg and 2.4 mg/kg, 11 weeks, FIG. 18B) was “dramatically decreased”, the “plasma ALT level” value (HFD-NASH mice [1]; 1.2 mg/kg and 2.4 mg/kg, after 6 weeks of treatment) was “significantly decreased” and the “serum ALT” value (HFD-NASH mice [1]; 1.2 mg/kg and 2.4 mg/kg, after 11 weeks of treatment, vs control group, FIG. 17A) was “significantly (P<0.05, or P<0.01) decreased”. The “serum TC levels” value (HFD-NASH mice [1]; 1.2 mg/kg and 2.4 mg/kg, after 11 weeks of treatment, vs control group, FIG. 17E) was “significantly (P<0.05, or P<0.01) decreased”, the “serum AST level” value (HFD-NASH mice [1]; 1.2 mg/kg and 2.4 mg/kg, after 11 weeks, P>0.05, FIG. 17B) was “appeared to have decreased” and the “percentage of body weight changes” value (HFD-NASH mice [1]; 1.2 mg/kg t.i.d. s.c., second of three values given 'respectively') was −10.12%. For the same compound, the “percentage of body weight changes” value (HFD-NASH mice [1]; 2.4 mg/kg t.i.d. s.c., third of three values given 'respectively') was −10.74%, the “area of liver macrovesicular steatosis (H&E staining)” value (HFD-NASH mice [1]; 2.4 mg/kg, 11 weeks, vs control group, FIG. 23B) was “significantly decreased” and the “number of animals with significant fibrosis severity (liver fibrosis pattern scoring)” value (HFD-NASH mice [1]; 2.4 mg/kg, 11 weeks, FIG. 21C) was “reduced”. The “animal number with severe pathology for steatosis, steatosis location, interlobular inflammation” value (HFD-NASH mice [1]; 2.4 mg/kg, 11 weeks, FIGS. 24A-24E) was “decreased”, the body weight increase (HFD-NASH mice [1]; Beinaglutide treatment groups (0.6, 1.2, 2.4 mg/kg t.i.d. s.c.), 11 weeks, vs control group, FIGS. 13A-13D) was “significantly reduced” and the “8-hour average food consumption” value (HFD-NASH mice [1]; Beinaglutide treatment groups (0.6, 1.2, 2.4 mg/kg), last 3 measurements (Day 68, 71, 75), vs control group, FIG. 14) was “significantly reduced”. The “plasma ALT level” value (HFD-NASH mice [1]; Beinaglutide treatment groups vs control group, after 9 weeks treatment) was “no significant difference”, the “serum TG levels” value (HFD-NASH mice [1]; Beinaglutide treatment groups, 11 weeks, P>0.05, FIG. 17D) was “no significant effect” and the “liver TC content” value (HFD-NASH mice [1]; Beinaglutide treatment groups, 11 weeks, vs control group, FIG. 18A) was “No statistically significant effect”. The “serum TBIL” value (HFD-NASH mice [1]; Beinaglutide treatment groups, 11 weeks, FIG. 17C) was “no significant effect”, the liver inflammation score (HFD-NASH mice [1]; [4]) was “appeared to have decreased” and the “serum AST level” value (HFD-NASH mice [1]; [4]) was “appeared to have decreased”. The “α-SMA positive areas (IHC staining)” value (HFD-NASH mice [1]; all Beinaglutide treatment groups, 11 weeks, FIGS. 22A-22B) was “decreased”, the “relative mRNA expression level of Col1a1 in liver (qRT-PCR)” value (HFD-NASH mice [1]; each Beinaglutide dose group, 11 weeks, vs control group, FIG. 19A) was “significantly decreased” and the “Tgfb1 gene expression level in liver (qRT-PCR)” value (HFD-NASH mice [1]; each Beinaglutide dose group, 11 weeks, vs control group, FIG. 19B) was “no statistically significant differences”. For the same compound, the “Acta2 gene expression level in liver (qRT-PCR)” value (HFD-NASH mice [1]; each Beinaglutide dose group, 11 weeks, vs control group, FIG. 19C) was “no statistically significant differences”, the “serum LDL-c level” value (HFD-NASH mice [1]; each Beinaglutide treatment group (0.6, 1.2, 2.4 mg/kg), 11 weeks, vs control group, FIG. 17F) was “significant (P<0.05, P<0.01, or even P<0.001) decrease” and the “percentage of Sirius red staining positive area” value (HFD-NASH mice [1]; each Beinaglutide treatment group, 11 weeks, vs control group, FIGS. 21A-21C) was “appeared to have decreased”. The liver weight (HFD-NASH mice [1]; every Beinaglutide treatment group (0.6, 1.2, 2.4 mg/kg), 11 weeks, vs control group, FIG. 15A) was “significantly decreased”, the liver index (HFD-NASH mice [1]; every Beinaglutide treatment group (0.6, 1.2, 2.4 mg/kg), 11 weeks, vs control group, FIG. 15B) was “significantly decreased” and the NAS score (HFD-NASH mice [1]; every Beinaglutide treatment group, 11 weeks, FIG. 23A) was “appeared to have decreased”. For the same compound, the Body weight (HFD-NASH mice [2]; 2.4 mg/kg s.c. three times per day, 4 weeks, vs control group, FIG. 4A) was “lower body weight”, the liver weight (HFD-NASH mice [2]; 2.4 mg/kg s.c. three times per day, 4 weeks, vs vehicle, FIG. 2A) was “significantly reduced” and the “liver triglyceride (TG) content” value (HFD-NASH mice [2]; 2.4 mg/kg s.c. three times per day, 4 weeks, vs vehicle, FIG. 2B) was “significantly reduced”. For the same compound, the “plasma alanine aminotransferase (ALT)” value (HFD-NASH mice [2]; 2.4 mg/kg s.c. three times per day, 4 weeks, vs vehicle, FIG. 2C) was “significantly reduced”, the “plasma aspartate aminotransferase (AST)” value (HFD-NASH mice [2]; 2.4 mg/kg s.c. three times per day, 4 weeks, vs vehicle, FIG. 2D) was “significantly reduced” and the “macrovesicular and microvesicular steatosis (H&E-stained liver sections)” value (HFD-NASH mice [2]; 2.4 mg/kg s.c. three times per day, 4 weeks, vs vehicle, FIG. 2E) was “significantly reduced”. For the same compound, the “Plasma TNF-α level” value (HFD-NASH mice [2]; 2.4 mg/kg s.c. three times per day, 4 weeks, vs vehicle, FIG. 3A) was “significantly reduced”, the “Plasma IL-6 level” value (HFD-NASH mice [2]; 2.4 mg/kg s.c. three times per day, 4 weeks, vs vehicle, FIG. 3B) was “significantly reduced” and the “Hepatic fibrosis (picrosirius red stained liver sections)” value (HFD-NASH mice [2]; 2.4 mg/kg s.c. three times per day, 4 weeks, vs vehicle, FIG. 3E) was “significantly reduced”. For the same compound, the “Protein level of liver collagen 1 alpha 1 (western blotting, densitometry normalized to actin)” value (HFD-NASH mice [2]; 2.4 mg/kg s.c. three times per day, 4 weeks, vs vehicle, FIGS. 3C-3D) was “significantly lower”, the “blood glucose in the oral glucose tolerance test (OGTT)” value (HFD-NASH mice [2]; 2.4 mg/kg, OGTT at day 30, vs control group, FIG. 4B) was “lower blood glucose” and the “HOMA-IR (insulin resistance)” value (HFD-NASH mice [2]; 2.4 mg/kg, vs control group, FIG. 4C) was “lower insulin resistance”. For the same compound, the “difference of pharmacokinetics between C57BL/6J mice and HFD-NASH mice” value [3] was “No significant difference”.

Source: US20230201311A1, “COMPOSITIONS AND METHODS FOR TREATING NON-ALCOHOLIC STEATOHEPATITIS (NASH)” (SHANGHAI BENEMAE PHARMACEUTICAL CORPORATION, priority 2020, published 2023)
